Columns and labels:
[1] = tested on: TNF release; assay: TNF assay: TNF release from LPS-stimulated human PBMCs (TNF ELISA); type: cell-based; conditions: PBMC; LPS-stimulated human PBMCs, TNF ELISA; read-out: IC50 (TNF assay)
In short: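 TNF ELISA on supernatants read-out; cells were 10k human PBMCs/well given LPS at 10 ng/mL for 18 h after a 2 h compound pre-incubation across a concentration series, with IC50 derived for suppression of TNF secretion.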

[2] = tested on: NF-κB; assay: NF-κB assay: THP1-NF-κB-LUC cells, LPS-stimulated secreted luciferase; type: cell-based; conditions: THP1-NF-κB-LUC cells, LPS-stimulated; read-out: IC50 (NF-κB assay)
In short: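 THP1-NF-κB-LUC cells (25k/well) were pretreated with compounds for 2 h, then stimulated with LPS (10 ng/mL) for 18 h. Secreted luciferase was measured and normalized to vehicle, and IC50 was fitted from the concentration series.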

IC50 [1] [µM]	IC50 [2] [µM]	SMILES
1 to 10	1 to 10	CC(C)[S+]([O-])c1sc(-c2cccc(F)c2)nc1S(=O)(=O)c1ccc(F)cc1 (stereo not drawn) [BC19591]
1 to 10	0.1 to 1	CC(C)C[S+]([O-])c1sc(-c2ccc(Cl)cc2)nc1S(=O)(=O)c1ccc(F)cc1 (stereo not drawn) [BC19593]
> 10	> 10	O=S(=O)(c1ccc(F)cc1)c1nc(-c2ccc(Cl)cc2)sc1[S+]([O-])C1CCCCC1 (stereo not drawn) [BC19594]
1 to 10	0.1 to 1	CS(=O)(=O)c1sc(-c2cccc(F)c2)nc1S(=O)(=O)c1ccc(F)cc1 [BC19596]
1 to 10	1 to 10	O=S(=O)(CC1CC1)c1sc(-c2cccc(F)c2)nc1S(=O)(=O)c1ccc(F)cc1 [BC19598]
> 10	> 10	CCC[S+]([O-])c1c(S(=O)(=O)c2ccc(F)cc2)nc(-c2ccccc2)n1C (stereo not drawn) [BC19600]
> 10	> 10	CC(C)[S+]([O-])c1c(S(=O)(=O)c2ccc(F)cc2)nc(-c2ccccc2)n1C (stereo not drawn) [BC19601]
> 10	> 10	Cn1c(-c2ccccc2)nc(S(=O)(=O)c2ccc(F)cc2)c1[S+]([O-])CC1CC1 (stereo not drawn) [BC19602]
> 10	0.1 to 1	O=C1NCCOc2c1cc(Br)cc2S(=O)(=O)Nc1ccc(Cl)cc1 [BC19603]
> 10	1 to 10	CCc1ccc(NS(=O)(=O)c2cc(Br)cc3c2OCCNC3=O)cc1 [BC19604]
> 10	> 10	CC(C)c1ccc(NS(=O)(=O)c2cc(Br)cc3c2OCCNC3=O)cc1 [BC19605]
> 10	1 to 10	O=C1NCCOc2c1cc(Br)cc2S(=O)(=O)Nc1ccc(F)cc1F [BC19608]
> 10	0.1 to 1	O=C1NCCOc2c1cc(Br)cc2S(=O)(=O)Nc1cccc(F)c1 [BC19610]
> 10	< 0.1	O=C1NCCOc2c1cc(Br)cc2S(=O)(=O)Nc1cccc(Cl)c1 [BC19611]
> 10	1 to 10	Cc1ccc(NS(=O)(=O)c2cc(Br)cc3c2OCCNC3=O)cc1 [BC19612]
> 10	> 10	O=C1NCCOc2c1cc(Br)cc2S(=O)(=O)Nc1ccc(F)cc1Cl [BC19613]
> 10	> 10	COc1ccc(NS(=O)(=O)c2cc(Br)cc3c2OCCNC3=O)cc1Cl [BC19614]
> 10	0.1 to 1	N#Cc1ccc(NS(=O)(=O)c2cc(Br)cc3c2OCCNC3=O)cc1 [BC19615]
1 to 10	0.1 to 1	CN1CCN(CCNC(=O)Nc2ccc3nc(-c4ccc(F)cc4)c(-c4ccc(F)cc4)nc3c2)CC1 [BC19616]

IC50 [1] [µM]	IC50 [2] [µM]	SMILES
> 10	> 10	CC(C)[S+]([O-])c1sc(-c2cccc(F)c2)nc1S(=O)(=O)c1ccc(Cl)cc1 (stereo not drawn) [BC19620]
1 to 10	1 to 10	CC(C)S(=O)(=O)c1sc(-c2ccc(Cl)cc2)nc1S(=O)(=O)c1ccc(Cl)cc1 [BC19622]
1 to 10	1 to 10	COCCS(=O)(=O)c1sc(-c2ccccc2)nc1S(=O)(=O)c1ccc(Cl)cc1 [BC19625]
> 10	1 to 10	CCC[S+]([O-])c1sc(-c2ccccc2F)nc1S(=O)(=O)c1ccc(Cl)cc1 (stereo not drawn) [BC19627]
> 10	> 10	CCCS(=O)(=O)c1sc(-c2ccccc2F)nc1S(=O)(=O)c1ccc(Cl)cc1 [BC19628]
1 to 10	> 10	CC(C)C[S+]([O-])c1sc(-c2ccccc2F)nc1S(=O)(=O)c1ccc(Cl)cc1 (stereo not drawn) [BC19630]
1 to 10	1 to 10	O=S(=O)(CC1CC1)c1sc(-c2ccccc2F)nc1S(=O)(=O)c1ccc(Cl)cc1 [BC19633]
> 10	> 10	Cn1c(-c2ccccc2)nc(S(=O)(=O)c2ccc(F)cc2)c1S(=O)(=O)CC1CC1 [BC19634]
> 10	> 10	CC(C)S(=O)(=O)c1sc(C2CCCCC2)nc1S(=O)(=O)c1ccc(Cl)cc1 [BC19636]
> 10	> 10	O=S(=O)(CC1CC1)c1sc(C2CCCCC2)nc1S(=O)(=O)c1ccc(Cl)cc1 [BC19639]
> 10	> 10	Cn1c(-c2ccccc2)nc(S(=O)(=O)c2ccc(F)cc2)c1[S+](C)[O-] (stereo not drawn) [BC19644]
> 10	> 10	CCCS(=O)(=O)c1sc(C2CCCCC2)nc1S(=O)(=O)c1ccc(Cl)cc1 [BC19646]
1 to 10	> 10	O=S1(=O)CCCn2c(-c3ccccc3)nc(S(=O)(=O)c3ccc(Cl)cc3)c21 [BC19647]
> 10	< 0.1	O=C1CCOc2c(cc(Br)cc2S(=O)(=O)Nc2cccc(F)c2)N1 [BC19649]
> 10	> 10	Cc1ccc(NS(=O)(=O)c2cc3c(cc2Br)NC(=O)CCO3)cc1F [BC19653]
> 10	> 10	O=C1CCOc2cc(S(=O)(=O)Nc3cccc(F)c3)c(Br)cc2N1 [BC19654]
> 10	> 10	O=C1CCOc2cc(S(=O)(=O)Nc3cccc(Cl)c3)c(Br)cc2N1 [BC19655]
> 10	> 10	O=C1CCOc2cc(S(=O)(=O)Nc3ccc(F)cc3Cl)c(Br)cc2N1 [BC19658]
> 10	> 10	Cc1ccc(NS(=O)(=O)c2cc3c(cc2Br)NC(=O)CCO3)cc1Cl [BC19659]

More lines, now with the values behind:

SMILES	IC50 [1] [µM]	IC50 [2] [µM]
O=S(=O)(CC1CC1)c1sc(-c2cccc(F)c2)nc1S(=O)(=O)c1ccc(Cl)cc1 [BC19592]	1 to 10	1 to 10
C[S+]([O-])c1sc(-c2cccc(F)c2)nc1S(=O)(=O)c1ccc(F)cc1 (stereo not drawn) [BC19595]	0.1 to 1	0.1 to 1
O=S(=O)(c1ccc(F)cc1)c1nc(-c2cccc(F)c2)sc1[S+]([O-])CC1CC1 (stereo not drawn) [BC19597]	> 10	1 to 10
COCC[S+]([O-])c1sc(-c2cccc(F)c2)nc1S(=O)(=O)c1ccc(F)cc1 (stereo not drawn) [BC19599]	1 to 10	1 to 10
COc1ccc(NS(=O)(=O)c2cc(Br)cc3c2OCCNC3=O)cc1 [BC19606]	> 10	1 to 10
Cc1ccc(NS(=O)(=O)c2cc(Br)cc3c2OCCNC3=O)cc1Cl [BC19607]	> 10	0.1 to 1
CCc1cccc(NS(=O)(=O)c2cc(Br)cc3c2OCCNC3=O)c1 [BC19609]	> 10	1 to 10
O=C(NCCCN1CCCC1=O)Nc1ccc2nc(-c3ccc(F)cc3)c(-c3ccc(F)cc3)nc2c1 [BC19617]	> 10	0.1 to 1
CN1CCN(C(=O)c2ccc3nc(-c4ccc(F)cc4)c(-c4ccc(F)cc4)nc3n2)CC1 [BC19618]	> 10	0.1 to 1
CNc1ncc(-c2ccc3nc(-c4ccc(F)cc4)c(-c4ccc(F)cc4)nc3c2)o1 [BC19619]	> 10	1 to 10
CCCS(=O)(=O)c1sc(-c2ccc(Cl)cc2)nc1S(=O)(=O)c1ccc(Cl)cc1 [BC19621]	1 to 10	1 to 10
O=S(=O)(c1ccc(Cl)cc1)c1nc(-c2ccc(Cl)cc2)sc1S(=O)(=O)C1CCCCC1 [BC19623]	> 10	> 10
CCCS(=O)(=O)c1sc(-c2ccccc2)nc1S(=O)(=O)c1ccc(Cl)cc1 [BC19624]	1 to 10	1 to 10
C[S+]([O-])c1sc(-c2ccccc2F)nc1S(=O)(=O)c1ccc(Cl)cc1 (stereo not drawn) [BC19626]	1 to 10	1 to 10
CC(C)[S+]([O-])c1sc(-c2ccccc2F)nc1S(=O)(=O)c1ccc(Cl)cc1 (stereo not drawn) [BC19629]	> 10	> 10
CC(C)CS(=O)(=O)c1sc(-c2ccccc2F)nc1S(=O)(=O)c1ccc(Cl)cc1 [BC19631]	> 10	1 to 10

SMILES	IC50 [1] [µM]	IC50 [2] [µM]
O=S(=O)(c1ccc(Cl)cc1)c1nc(-c2ccccc2F)sc1[S+]([O-])CC1CC1 (stereo not drawn) [BC19632]	> 10	> 10
CC(C)[S+]([O-])c1sc(C2CCCCC2)nc1S(=O)(=O)c1ccc(Cl)cc1 (stereo not drawn) [BC19635]	> 10	> 10
CC(C)C[S+]([O-])c1sc(C2CCCCC2)nc1S(=O)(=O)c1ccc(Cl)cc1 (stereo not drawn) [BC19637]	> 10	> 10
CC(C)CS(=O)(=O)c1sc(C2CCCCC2)nc1S(=O)(=O)c1ccc(Cl)cc1 [BC19638]	> 10	> 10
C[S+]([O-])c1sc(C2CCCCC2)nc1S(=O)(=O)c1ccc(Cl)cc1 (stereo not drawn) [BC19640]	> 10	> 10
CS(=O)(=O)c1sc(C2CCCCC2)nc1S(=O)(=O)c1ccc(Cl)cc1 [BC19641]	> 10	> 10
COCC[S+]([O-])c1sc(C2CCCCC2)nc1S(=O)(=O)c1ccc(Cl)cc1 (stereo not drawn) [BC19642]	> 10	> 10
CCC[S+]([O-])c1sc(C2CCCCC2)nc1S(=O)(=O)c1ccc(Cl)cc1 (stereo not drawn) [BC19645]	> 10	> 10
O=C1CCOc2c(cc(Br)cc2S(=O)(=O)Nc2ccc(OC(F)(F)F)cc2)N1 [BC19648]	> 10	< 0.1
O=C1CCOc2c(cc(Br)cc2S(=O)(=O)Nc2cccc(Cl)c2)N1 [BC19650]	> 10	< 0.1
Cc1ccc(NS(=O)(=O)c2cc(Br)cc3c2OCCC(=O)N3)cc1Cl [BC19651]	> 10	0.1 to 1
O=C1CCOc2cc(S(=O)(=O)Nc3ccc(OC(F)(F)F)cc3)c(Br)cc2N1 [BC19652]	> 10	1 to 10
O=C1CCOc2cc(S(=O)(=O)Nc3ccc(Cl)cc3)c(Br)cc2N1 [BC19656]	> 10	1 to 10
CCc1cccc(NS(=O)(=O)c2cc3c(cc2Br)NC(=O)CCO3)c1 [BC19657]	> 10	1 to 10
O=C1CCOc2cc(S(=O)(=O)Nc3ccc(F)cc3)c(Br)cc2N1 [BC19660]	> 10	> 10

From patent publication US12606528B2, “Methods and materials for inhibiting NF-kB activity” (University of Pittsburgh - Of the Commonwealth System of …, priority 2019, dated 2026)
